In US6221637A, “Xanthene derivatives, their production and use” (Takeda Chemical Industries, Ltd., priority 1996, dated 2001):
In brackets after ≈: the same amount, converted by molar mass. Values belong to the compound of their own block, whether it stands above or below them.

Experiments:
binding of B7-1 to CD28 = target: T1, binding of B7-1 to CD28 (Homo sapiens, UniProt P10747+P33681); assay: Binding inhibition test using soluble B7-1-Ig; details: 10 μg/ml soluble B7-1-Ig; fixed CD28-expressing CHO cells; 30 minutes at room temperature; read-out: IC50 (concentration for 50% inhibition of binding) (converted)
T1 construct: ligating the Fc region of human IgG to the C-terminal side of the extracellular region of B7-1; Fc region of human IgG (from plasmid pTB1455); expressed in transfected cells; soluble B7-1-Ig made in house by sB7-1-Ig-CHO-20 and purified from its supernatant
Description: b) Expression of CD28 in CHO cells
Using petri dishes 10 cm in diameter, 1×10^5 dihydrofolate reductase deficient (DHFR^-) CHO cells were cultured in an αMEM medium containing 10% fetal bovine serum for 24 hours. To these cells, the CD28cDNA expression plasmid pAKKO-CD28as obtained in Reference Example 1 (10 μg) was introduced by the calcium phosphate method. Forty-eight hours later, the medium was replaced with an αMEM medium (no nucleic acid contained) containing 10% dialyzed fetal bovine serum, and cells incorporating the plasmid in their chromosome were selected. For these selected cells, CD28 expression was examined by flow cytometry (EPICS ELITE, COULTER), and cells showing high expression of CD28were obtained. These cells were cloned by the limiting dilution method to obtain CD28-CHO-11, a cell line that stably expresses high amount of CD28. […]
c) Establishment of CHO cells that produce soluble B7-1-Ig
Using petri dishes 10 cm in diameter, 1×10^5 dihydrofolate reductase deficient (DHFR^31 ) CHO cells were cultured in an αMEM medium containing 10% fetal bovine serum for 24 hours. To these cells, 10 μg of the expression plasmid encoding soluble B7-1-Ig as obtained in Reference Example 22 was introduced by the calcium phosphate method. Forty-eight hours later, the medium was replaced with an αMEM medium (no nucleic acid contained) containing 10% dialyzed fetal bovine serum, and cells incorporating the plasmid into their chromosome were selected. For these selected cells, the amount of soluble B7-1-Ig produced in the culture supernatant was measured by EIA, and cells showing high productivity were obtained. These cells were cloned by the limiting dilution method to obtain sB7-1-Ig-CHO-20, a cell line that stably produces soluble B7-1-Ig. […]
d) Preparation of soluble B7-1-Ig
Using petri dishes 15 cm in diameter, the soluble B7-1-Ig-producing CHO cells obtained in term c) above (sB7-1-Ig-CHO-20) were cultured in an αMEM medium containing 10% fetal bovine serum to yield 5 l of culture supernatant. This culture supernatant was crudely purified using a protein G column (Chromatop Superprotein G, […] I.D.×10 cm, NGK Insulators, Ltd.) and further purified by gel filtration chromatography (TSKgel G3000SW, […] I.D.×[…], Tosoh) to yield 20 mg of a purified standard preparation.
Binding inhibition test using soluble B7-1-Ig
The CHO cells that expressed CD28obtained in Example 122 were suspended in an αMEM medium (no nucleic acid contained) containing 10% dialyzed fetal bovine serum, seeded into 96-well microplates (flat bottom) to 3×10^4 cells/well, and cultured in the presence of 5% CO2 at 37° C. for 48 hours. The culture supernatant was removed by aspiration from each plate to which cells adhered, followed by the addition of phosphate buffer saline (PBS) containing 0.5% paraformaldehyde to fix the cells. After this plate was washed twice with PBS containing 10% Block Ace (Snow Brand Milk Products), 10 μg/ml soluble B7-1-Ig and a sample were added to each well. Binding reaction was carried out by keeping the plate standing at room temperature for 30 minutes. After the reaction, the plate was washed twice with PBS containing 10% Block Ace (Snow Brand Milk Products), followed by the addition of peroxidase-labeledanti-human IgG (Cappel) and 2 hours of reaction. The plate was further washed twice with PBS containing 10% Block Ace (Snow Brand Milk Products), after which 100 μl of a 0.1M citrate buffer containing 6.5 mg/ml ortho-phenylenediamine dihydrochloride (Wako Pure Chemical Industries) and 0.06% hydrogen peroxide was added to each well. Twenty minutes later, the coloring reaction was stopped with 2N sulfuric acid, and the absorbance at 492 nm was determined using a plate reader (BIO-RAD Model 1450).

mice = assay: Toxicity test; assay type: in vivo; details: intraperitoneally, 400 mg/kg
[1] = system: interleukin 2 (IL-2) production by human peripheral blood T cells; assay: Inhibition test for interleukin 2 (IL-2) production by human peripheral blood T cells; assay type: cell-based; details: anti-CD3 antibody coated plates; CHO cells expressing B7-1; 48 hours, 37° C.; read-out: IC50 value (concentration for 50% suppression of interleukin-2 production)
Description: a) Expression of B7-1 in CHO cells
Using petri dishes 10 cm in diameter, 1×10^5 Chinese hamster ovary (CHO) cells were cultured in an αMEM medium containing 10% fetal bovine serum for 24 hours. To these cells, the B7-1 cDNA expression plasmid pME-B7-1 as obtained in Reference Example 1 (10 μg) and the neomycin resistance expression plasmid pME-neo (1 μg) were introduced by the calcium phosphate method. Forty-eight hours later, GENETICIN (G418 sulfate, GIBCO) was added to a final concentration of 0.5 mg/ml, and cells that acquired neomycin resistance were selected. For these selected cells, B7-1 expression was examined by flow cytometry (EPICS ELITE, COULTER), and cells showing high expression of B7-1 were obtained. These cells were cloned by the limiting dilution method to obtain B7-1-CHO-22, a cell line that stably expresses high amount of B7-1.
Inhibition test for interleukin 2 (IL-2) production by human peripheral blood T cells
Blood was collected from a healthy normal human, overlaid on lymphocyte separation medium (LSM, Organon Teknica Co.), and centrifuged at room temperature at 2,000 rpm for 20 minutes to obtain human peripheral blood mononuclear cells. […] The IL-2 produced in the culture supernatant was quantified using the HUMAN INTERLEUKIN-2 EIA KIT (Cayman Chemical Co.).

T1 sequence (P10747 19-220): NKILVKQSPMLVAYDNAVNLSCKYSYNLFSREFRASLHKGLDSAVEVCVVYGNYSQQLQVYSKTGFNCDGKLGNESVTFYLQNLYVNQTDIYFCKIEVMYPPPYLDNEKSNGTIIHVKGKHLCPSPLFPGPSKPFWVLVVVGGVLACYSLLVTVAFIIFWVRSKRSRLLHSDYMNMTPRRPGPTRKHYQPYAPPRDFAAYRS
T1 sequence (P33681 with tags, fused parts or gaps): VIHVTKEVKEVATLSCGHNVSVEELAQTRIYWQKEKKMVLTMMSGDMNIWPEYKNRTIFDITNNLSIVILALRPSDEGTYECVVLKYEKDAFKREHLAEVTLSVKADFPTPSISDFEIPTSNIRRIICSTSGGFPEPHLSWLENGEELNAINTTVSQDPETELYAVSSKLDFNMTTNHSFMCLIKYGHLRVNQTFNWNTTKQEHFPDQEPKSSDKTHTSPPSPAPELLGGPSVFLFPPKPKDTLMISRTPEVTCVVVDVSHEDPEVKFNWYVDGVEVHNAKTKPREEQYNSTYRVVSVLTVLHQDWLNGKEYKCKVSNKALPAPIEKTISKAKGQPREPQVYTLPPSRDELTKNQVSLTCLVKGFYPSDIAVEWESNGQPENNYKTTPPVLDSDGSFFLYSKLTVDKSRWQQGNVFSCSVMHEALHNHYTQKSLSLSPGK

SMILES: COC(=O)c1c(SCC(=O)O)c(O)cc2oc3c(Cl)c(C)c(Cl)c(O)c3c(=O)c12 [Compound 1]
deaths after intraperitoneal administration (mice): no animals died
IC50 (binding of B7-1 to CD28): 305 nM
IC50 [1]: 10 µg/mL (≈ 21.8 µM)

SMILES: COC(=O)c1c([S+]([O-])CC(=O)O)c(O)cc2oc3c(Cl)c(C)c(Cl)c(O)c3c(=O)c12 (centres unmarked) [Compound 17, methyl 2-(carboxymethylsulfinyl)-5,7-dichloro-3,8-dihydroxy-6-methyl-9-oxo-9H-xanthene-1-carboxylate]
IC50 (binding of B7-1 to CD28): < 210 nM

Second part, the compound after the results:

IC50 (binding of B7-1 to CD28): < 194 nM
SMILES: CCC(=O)Oc1c(Cl)c(C)c(Cl)c2oc3cc(O)c(SCC(=O)O)c(C(=O)OC)c3c(=O)c12 [Compound 27]

IC50 (binding of B7-1 to CD28): < 166 nM
SMILES: COC(=O)c1c([S+]([O-])CC(=O)O)c(O)c(I)c2oc3c(Cl)c(C)c(Cl)c(O)c3c(=O)c12 (centres unmarked) [Compound 54, methyl 2-(carboxymethylsulfinyl)-5,7-dichloro-3,8-dihydroxy-4-iodo-6-methyl-9-oxo-9H-xanthene-1-carboxylate]

IC50 (binding of B7-1 to CD28): 171 nM
SMILES: COC(=O)c1c(SCC(=O)O)c(O)c(I)c2oc3c(Cl)c(C)c(Cl)c(O)c3c(=O)c12 [Compound 40]

IC50 (binding of B7-1 to CD28): 238 nM
SMILES: COC(=O)c1c(SCC(=O)O)c(O)c([N+](=O)[O-])c2oc3c(Cl)c(C)c(Cl)c(O)c3c(=O)c12 [Compound 132]
